# Test results: patent US20180000085A1, “USE OF PICOLINAMIDE COMPOUNDS WITH FUNGICIDAL ACTIVITY” (DOW AGROSCIENCES LLC, priority 2014, published 2018)
# Key:
# Puccinia triticina = experiment: Wheat brown rust (PUCCRT) disease control on wheat seedlings; assay type: in vivo; set-up: key to PUCCRT 3DC, HV activity at 100 ppm (% control rating) / PUCCRT disease control, 3DC / PUCCRT 1DP disease control rating, HV activity / PUCCRT 3DC disease control rating, HV activity / PUCCRT 3DC, LV activity at 125.1 g/H (% Control rating) / PUCCRT 1DP, LV activity at 125.1 g/H (% Control rating) / PUCCRT 3DC disease control rating, LV activity at 125.1 g/H / PUCCRT 1DP disease control rating, LV activity at 125.1 g/H / PUCCRT 3DC disease control rating, HV activity at 100 ppm / PUCCRT 1DP disease control rating, HV activity at 100 ppm / HV activity at 100 ppm PUCCRT 3DC (disease control rating) / LV activity at 125.1 g/H PUCCRT 1DP (disease control rating) / LV activity at 125.1 g/H PUCCRT 3DC (disease control rating): A: > 80; B: ≤ 80; C: Not Tested; D: No Activity Observed in the Reported Assay; details: for PUCCRT 1DP disease control rating, HV activity / PUCCRT 3DC disease control rating, HV activity: HV application at 100 ppm; for PUCCRT 1DP disease control rating, HV activity / PUCCRT 1DP disease control rating, LV activity / PUCCRT 1DP, LV activity at 125.1 g/H (% Control rating): 1 Day Protectant; for PUCCRT 1DP disease control rating, HV activity / PUCCRT 3DC disease control rating, HV activity / PUCCRT 1DP disease control rating, LV activity / PUCCRT 3DC disease control rating, LV activity: wheat brown rust; for PUCCRT 3DC disease control rating, HV activity / PUCCRT 3DC disease control rating, LV activity / PUCCRT 3DC, LV activity at 125.1 g/H (% Control rating): 3 Day Curative; for PUCCRT 1DP disease control rating, LV activity / PUCCRT 3DC disease control rating, LV activity: Low volume application at 125.1 g/H; for PUCCRT 1DP, LV activity at 125.1 g/H (% Control rating) / PUCCRT 3DC, LV activity at 125.1 g/H (% Control rating): low volume application
# Zymoseptoria tritici = experiment: Leaf blotch of wheat (SEPTTR) disease control on wheat seedlings; assay type: in vivo; set-up: key to SEPTTR 1DP, HV activity at 100 ppm (% control rating) / SEPTTR 3DC, HV activity at 100 ppm (% control rating) / SEPTTR disease control, 1DP / SEPTTR disease control, 3DC / SEPTTR 1DP disease control rating, HV activity / SEPTTR 3DC disease control rating, HV activity / SEPTTR 3DC, LV activity at 125.1 g/H (% Control rating) / SEPTTR 1DP, LV activity at 125.1 g/H (% Control rating) / SEPTTR 1DP disease control rating, LV activity at 125.1 g/H / SEPTTR 3DC disease control rating, LV activity at 125.1 g/H / SEPTTR 3DC disease control rating, HV activity at 100 ppm / SEPTTR 1DP disease control rating, HV activity at 100 ppm / HV activity at 100 ppm SEPTTR 3DC (disease control rating) / HV activity at 100 ppm SEPTTR 1DP (disease control rating) / LV activity at 125.1 g/H SEPTTR 1DP (disease control rating) / LV activity at 125.1 g/H SEPTTR 3DC (disease control rating): A: > 80; B: ≤ 80; C: Not Tested; D: No Activity Observed in the Reported Assay; details: for SEPTTR 1DP disease control rating, HV activity / SEPTTR 3DC disease control rating, HV activity: HV application at 100 ppm; for SEPTTR 1DP disease control rating, HV activity / SEPTTR 1DP disease control rating, LV activity / SEPTTR 1DP, LV activity at 125.1 g/H (% Control rating): 1 Day Protectant; for SEPTTR 1DP disease control rating, HV activity / SEPTTR 3DC disease control rating, HV activity / SEPTTR 1DP disease control rating, LV activity / SEPTTR 3DC disease control rating, LV activity: wheat leaf blotch; for SEPTTR 3DC disease control rating, HV activity / SEPTTR 3DC disease control rating, LV activity / SEPTTR 3DC, LV activity at 125.1 g/H (% Control rating): 3 Day Curative; for SEPTTR 1DP disease control rating, LV activity / SEPTTR 3DC disease control rating, LV activity: Low volume application at 125.1 g/H; for SEPTTR 1DP, LV activity at 125.1 g/H (% Control rating) / SEPTTR 3DC, LV activity at 125.1 g/H (% Control rating): low volume application
Compound,"PUCCRT 1DP disease control rating, HV activity (Puccinia triticina)","PUCCRT 3DC disease control rating, HV activity (Puccinia triticina)","SEPTTR 1DP disease control rating, HV activity (Zymoseptoria tritici)","SEPTTR 3DC disease control rating, HV activity (Zymoseptoria tritici)","PUCCRT 1DP disease control rating, LV activity (Puccinia triticina)","PUCCRT 3DC disease control rating, LV activity (Puccinia triticina)","SEPTTR 1DP disease control rating, LV activity (Zymoseptoria tritici)","SEPTTR 3DC disease control rating, LV activity (Zymoseptoria tritici)","PUCCRT 1DP, LV activity at 125.1 g/H (% Control rating) (Puccinia triticina)","PUCCRT 3DC, LV activity at 125.1 g/H (% Control rating) (Puccinia triticina)","SEPTTR 1DP, LV activity at 125.1 g/H (% Control rating) (Zymoseptoria tritici)","SEPTTR 3DC, LV activity at 125.1 g/H (% Control rating) (Zymoseptoria tritici)"
COc1ccnc(C(=O)NC(C)C(=O)OC(C)C(Oc2cccc3ccccc23)C(C)C)c1O (stereo not drawn) [Cmpd 434],A (> 80),D,A (> 80),D,,,,,,,,
CCCOC(C(C)C)C(C)OC(=O)C(C)NC(=O)c1nccc(OC)c1O (stereo not drawn) [Cmpd 435],B (≤ 80),B (≤ 80),D,D,,,,,,,,
COc1ccnc(C(=O)NC(C)C(=O)OC(C)C(Oc2ccccc2)c2cccs2)c1O (stereo not drawn) [Cmpd 436],B (≤ 80),B (≤ 80),A (> 80),B (≤ 80),,,,,,,,
C=CCC(Oc1ccccc1)C(C)OC(=O)C(C)NC(=O)c1nccc(OC)c1O (stereo not drawn) [Cmpd 437],A (> 80),A (> 80),B (≤ 80),A (> 80),,,,,,,,
CCCC(Oc1ccccc1)C(C)OC(=O)C(C)NC(=O)c1nccc(OC)c1O (stereo not drawn) [Cmpd 438],A (> 80),A (> 80),A (> 80),A (> 80),,,,,,,,
C=CCC(Oc1ccc(Cl)cc1Cl)C(C)OC(=O)C(C)NC(=O)c1nccc(OC)c1O (stereo not drawn) [Cmpd 439],A (> 80),A (> 80),B (≤ 80),D,,,,,,,,
CCC(C)C(Oc1ccccc1)C(C)OC(=O)C(C)NC(=O)c1nccc(OC)c1O (stereo not drawn) [Cmpd 440],A (> 80),A (> 80),A (> 80),A (> 80),,,,,,,,
COc1ccnc(C(=O)NC(C)C(=O)OC(C)C(OCC2CC2)c2cccc(-c3ccccc3)c2)c1O (stereo not drawn) [Cmpd 442],B (≤ 80),B (≤ 80),D,B (≤ 80),,,,,,,,
CCCC(NC(=O)c1nccc(OC)c1OCOC(C)=O)C(=O)OC(C)C(CCc1ccccc1)OCC(C)C (stereo not drawn) [Cmpd 444],A (> 80),B (≤ 80),A (> 80),A (> 80),,,,,,,,
CCC(Cc1ccccc1)C(OCC(C)C)C(C)OC(=O)CNC(=O)c1nccc(OC)c1OCOC(C)=O (stereo not drawn) [Cmpd 445],A (> 80),A (> 80),B (≤ 80),D,,,,,,,,
CCCOC(CC)C(Oc1ccccc1)C(C)OC(=O)C(NC(=O)c1nccc(OC)c1OCOC(C)=O)C(C)C (stereo not drawn) [Cmpd 447],A (> 80),A (> 80),A (> 80),B (≤ 80),,,,,,,,
CCCOC(CC)C(Oc1ccccc1)C(C)OC(=O)C(CC(C)C)NC(=O)c1nccc(OC)c1OCOC(C)=O (stereo not drawn) [Cmpd 448],A (> 80),B (≤ 80),B (≤ 80),B (≤ 80),,,,,,,,
CCCOC(CC)C(Oc1ccccc1)C(C)OC(=O)C(NC(=O)c1nccc(OC)c1OCOC(C)=O)C(C)CC (stereo not drawn) [Cmpd 449],A (> 80),A (> 80),A (> 80),B (≤ 80),,,,,,,,
CCCOC(CC)C(Oc1ccccc1)C(C)OC(=O)C(C)NC(=O)c1nccc(OC)c1OC(C)=O (stereo not drawn) [Cmpd 450],A (> 80),A (> 80),A (> 80),A (> 80),A (> 80),A (> 80),B (≤ 80),B (≤ 80),,,,
CCCOC(CC)C(Oc1ccccc1)C(C)OC(=O)C(NC(=O)c1nccc(OC)c1OC(C)=O)C(C)C (stereo not drawn) [Cmpd 451],A (> 80),A (> 80),B (≤ 80),A (> 80),,,,,,,,
CCCOC(CC)C(Oc1ccccc1)C(C)OC(=O)C(CC(C)C)NC(=O)c1nccc(OC)c1OC(C)=O (stereo not drawn) [Cmpd 452],A (> 80),A (> 80),B (≤ 80),B (≤ 80),,,,,,,,
CCCOC(CC)C(Oc1ccccc1)C(C)OC(=O)C(NC(=O)c1nccc(OC)c1OC(C)=O)C(C)CC (stereo not drawn) [Cmpd 453],A (> 80),A (> 80),B (≤ 80),B (≤ 80),,,,,,,,
CCC(Cc1ccccc1)C(OCC(C)C)C(C)OC(=O)C(C)NC(=O)c1nccc(OC)c1OCOC(C)=O (stereo not drawn) [Cmpd 454],A (> 80),A (> 80),A (> 80),A (> 80),,,,,,,,
C=CC(OCCC)C(Oc1ccccc1)C(C)OC(=O)C(C)NC(=O)c1nccc(OC)c1OC(C)=O (stereo not drawn) [Cmpd 456],A (> 80),A (> 80),A (> 80),A (> 80),A (> 80),A (> 80),A (> 80),A (> 80),,,,
CC[C@H](Cc1ccc(F)cc1)[C@@H](Oc1ccccc1)[C@H](C)OC(=O)[C@H](C)NC(=O)c1nccc(OC)c1OC(C)=O [Cmpd 469],,,,,,,,,A (> 80),A (> 80),A (> 80),A (> 80)
CC[C@H](Cc1ccc(OC)cc1)[C@@H](Oc1ccccc1)[C@H](C)OC(=O)[C@H](C)NC(=O)c1nccc(OC)c1OCOC(C)=O [Cmpd 470],,,,,,,,,A (> 80),A (> 80),A (> 80),A (> 80)
CC[C@H](Cc1ccc(F)cc1)[C@@H](Oc1ccccc1)[C@H](C)OC(=O)[C@H](C)NC(=O)c1nccc(OC)c1OCOC(C)=O [Cmpd 471],,,,,,,,,A (> 80),A (> 80),A (> 80),A (> 80)
CC[C@H](Cc1ccc(OC)cc1)[C@@H](Oc1ccccc1)[C@H](C)OC(=O)[C@H](C)NC(=O)c1nccc(OC)c1OC(=O)C(C)C [Cmpd 472],,,,,,,,,A (> 80),B (≤ 80),A (> 80),A (> 80)
CC[C@H](Cc1ccc(F)cc1)[C@@H](Oc1ccccc1)[C@H](C)OC(=O)[C@H](C)NC(=O)c1nccc(OC)c1OC(=O)C(C)C [Cmpd 473],,,,,,,,,A (> 80),D,B (≤ 80),B (≤ 80)
CCC(CCOC)C(Oc1ccccc1)C(C)OC(=O)C(C)NC(=O)c1nccc(OC)c1OC(C)=O (stereo not drawn) [Cmpd 481],,,,,,,,,A (> 80),A (> 80),B (≤ 80),A (> 80)
